Results published in paper PMC5996347, “2-Mercapto-Quinazolinones as Inhibitors of Type II NADH Dehydrogenase and Mycobacterium tuberculosis: Structure–Activity Relationships, Mechanism of Action and Absorption, Distribution, Metabolism, and Excretion Characterization” (ACS Infectious Diseases, 2018).
In brackets after ≈: the same amount, converted by molar mass. Like-named read-outs stand apart in the source and are kept apart here.

Assays:
[1] = Calculated properties (StarDrop)
[2] = target: T1, recombinant MBP-MtNdh (MTb NDH-2) (Mycobacterium tuberculosis, UniProt P95160); experiment: Ndh activity assay (NADH oxidation at 340 nm); format: biochemical; details: NADH 250 μM, Q2 40 μM; mean ± SD, Figure 6 inset; read-out: IC50 against MBP-MtNdh
T1 construct: The ORF corresponding to Rv1854c was codon optimized for E. coli; made in house; host or cells: E. coli BL21 (DE3) pLysS
T1 sequence (P95160 whole entry): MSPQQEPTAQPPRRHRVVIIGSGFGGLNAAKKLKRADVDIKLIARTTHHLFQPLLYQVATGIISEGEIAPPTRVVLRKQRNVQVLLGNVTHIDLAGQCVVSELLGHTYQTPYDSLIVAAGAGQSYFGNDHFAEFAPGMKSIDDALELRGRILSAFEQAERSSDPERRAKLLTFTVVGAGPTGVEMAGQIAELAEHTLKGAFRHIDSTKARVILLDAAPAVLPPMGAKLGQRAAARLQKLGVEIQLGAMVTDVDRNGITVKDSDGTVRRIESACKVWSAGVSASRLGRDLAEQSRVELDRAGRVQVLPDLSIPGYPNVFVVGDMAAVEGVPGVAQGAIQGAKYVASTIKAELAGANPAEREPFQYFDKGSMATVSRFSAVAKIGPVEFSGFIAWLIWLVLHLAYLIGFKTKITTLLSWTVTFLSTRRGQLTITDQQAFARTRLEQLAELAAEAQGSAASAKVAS

M. tuberculosis H37Rv [3] = experiment: microbe, parasite or virus in culture; format: cell-based; details: Mycobacterium tuberculosis
M. tuberculosis H37Rv [4] = experiment: H37Rv MIC in GAST medium; format: cell-based, Mycobacterium tuberculosis
physchem [5] = format: physicochemical; details: for solubility kinetic: water, kinetic from dmso stock
Method: The aqueous solubility of the test compounds was measured using laser nephelometry. Compounds were subject to serial dilution from 10 to 0.5 mM in DMSO. An aliquot was then mixed with Milli-Q water to obtain an aqueous dilution plate with a final concentration range of 250–12 μM, with a final DMSO concentration of 2.5%. Triplicate aliquots were transferred to a flat bottomed polystyrene plate which was immediately read on the NEPHELOstar (BMG Lab Technologies). The amount of laser scatter caused by insoluble particulates (relative nephelometry units, RNU) was plotted against compound concentration using a segmental regression fit, with the point of inflection being quoted as the compounds aqueous solubility (μM).

HepG2 [6] = details: human
physchem [7] = format: physicochemical; details: pH 7.4
Method: The chromatographic hydrophobicity index (CHI) was determined according the method previously described.[43],[44] Briefly, test compounds were prepared as 0.5 mM solutions in 50:50 acetonitrile/water and analyzed by reversed-phase HPLC-UV (wavelength 254 nm) using a Phenomenex Luna C18 100 Å, 150 × 4.6 mm, 5 μm column with a gradient of aqueous phase (50 mM ammonium acetate (pH 7.4)) and mobile phase (acetonitrile). By plotting the retention time of a set of reference compounds against known CHI values, the CHI value of test compounds was calculated according to their retention time.

HepG2 [8] = experiment: cells; details: Homo sapiens, HepG2, read-out: HepG2 IC50
M. tuberculosis H37Rv [9] = experiment: Extracellular flux analysis (oxygen consumption rate); details: 1 at 39 μM, 7 at 45 μM
in vitro = in vitro ADME; details: PAMPA, pH 7.4
Method: The permeability was performed using a 96-well precoated BD Gentest PAMPA plate (BD Biosciences, U.K.). Each well was divided into two chambers: donor and acceptor, separated by a lipid-oil-lipid trilayer constructed in a porous filter. The effective permeability, Pe, of the compound was measured at pH 7.4. Stock solutions (5 mM) of the compound were prepared in DMSO. The compound was then further diluted to 10 μM in phosphate buffered saline at pH 7.4. […] The compound dissolved in phosphate buffered saline was then added to the donor side of the membrane, and phosphate buffered saline without compound was added to the acceptor side. The PAMPA plate was left at room temperature for 5 h; after which time, an aliquot (100 μL) was then removed from both acceptor and donor compartments and mixed with acetonitrile (80 μL) containing an internal standard: donepezil at 50 ng/mL). The samples were centrifuged (10 min, 5 °C, 3270g) to sediment precipitated protein and sealed prior to UPLC-MS/MS analysis using a Quattro Premier XE (Waters Corp, USA). Pe was calculated as shown in the below equation. [drawing 2] where CA(t) = peak area of compound present in acceptor well at time (t) = 18 000 s; Cequi = [CD(t) × VD + CA(t) × VA]/(VD + VA); A = filter area; VD = donor well volume; VA = acceptor well volume; t = incubation time; CD(t) = peak area of compound present in donor well at time (t) = 18 000 s. Recovery of compound from donor and acceptor wells was calculated, and data was only accepted when recovery exceeded 70%.

[10] = format: in vitro ADME; details: mouse, plasma
Method: In brief, a 96-well equilibrium dialysis apparatus was used to determine the free fraction in plasma for each compound (HT Dialysis LLC, Gales Ferry, CT). Membranes (12–14 kDaA cutoff) were conditioned in deionized water for 60 min, followed by conditioning in 80:20 deionized water/ethanol overnight and then rinsed in water and isotonic buffer before use. Mouse plasma from appropriate species was removed from the freezer and allowed to thaw on the day of experiment. Thawed plasma was then centrifuged (Allegra X12-R, Beckman Coulter, USA) and spiked with test compound (final concentration 10 μg/mL), and 150 μL aliquots (n = 3 replicate determinations) were loaded into the 96-well equilibrium dialysis plate. Dialysis against isotonic buffer (150 μL) was carried out for 5 h in a temperature controlled incubator at ca. 37 °C (Barworld scientific Ltd., UK) using an orbital microplate shaker at 100 rpm (Barworld scientific Ltd., UK). At the end of the incubation period, 50 μL aliquots of plasma or buffer were transferred into a 96-well deep plate and the composition in each well was balanced with control fluid (50 μL), such that the volume of buffer to plasma is the same. Sample extraction was performed by the addition of 200 μL of acetonitrile containing an appropriate internal standard. Samples were allowed to mix for 1 min and then centrifuged at 3000 rpm in 96-well blocks for 15 min (Allegra X12-R, Beckman Coulter, USA) after which 150 μL of supernatant was removed to 50 μL of water. All samples were analyzed by UPLC-MS/MS on a Quattro Premier XE Mass Spectrometer (Waters Corporation, USA). The unbound fraction was determined as the ratio of the peak area in buffer to that in plasma.

Mouse pharmacokinetics = format: in vivo, female C57Bl/6 mice; details: for AUC(0-t) / Cmax: 10 mg/kg; for AUC: whole blood, single rising oral dose
Method: Test compound was dosed as a bolus solution intravenously at 3 mg free base/kg (dose volume: 5 mL/kg; dose vehicle: 10% DMSO; 40% PEG400; 50% saline) to female C57Bl/6 mice (n = 3) or dosed orally by gavage as a suspension at 10 or at 5, 30, or 100 mg free base/kg (dose volume: 10 mL/kg; dose vehicle: 1.0% carboxy methyl cellulose) to female C57Bl/6 mice (n = 3/dose level). Blood samples were taken from each mouse tail vein at predetermined time points postdose, mixed with nine volumes of distilled water, and stored frozen until UPLC-MS/MS analysis. Pharmacokinetic parameters were derived from the blood concentration time curve using PK Solutions software v 2.0 (Summit Research Services, USA).

[11] = mouse liver microsomes
[12] = format: in vitro ADME; details: female, CD1, mouse, 0.5 μM, pH 7.4
Method: Test compound (0.5 μM) was incubated with female CD1 mouse liver microsomes (Xenotech LLC; 0.5 mg/mL, 50 mM potassium phosphate buffer, pH 7.4), and the reaction started with addition of excess NADPH (8 mg/mL, 50 mM potassium phosphate buffer, pH 7.4). Immediately, at time zero, and then at 3, 6, 9, 15, and 30 min, an aliquot (50 μL) of the incubation mixture was removed and mixed with acetonitrile (100 μL) to stop the reaction. Internal standard was added to all samples; the samples were centrifuged to sediment precipitated protein, and the plates were then sealed prior to UPLC-MS/MS analysis using a Quattro Premier XE (Waters Corporation, USA). XLfit (IDBS, UK) was used to calculate the exponential decay and consequently the rate constant (k) from the ratio of peak area of test compound to internal standard at each time point. The rate of intrinsic clearance (Cli) of each test compound was then calculated using the following calculation. [drawing 1] where V (mL/mg protein) is the incubation volume/mg protein added and microsomal protein yield is taken as 52.5 mg protein/g liver. Verapamil (0.5 μM) was used as a positive control to confirm acceptable assay performance.

[13] = Mycobacterium tuberculosis, H37RV, read-out: GAST MIC
[14] = female, C57Bl/6, mouse, in vivo
[15] = female, C57Bl/6, mouse, in vivo, po
[16] = Mycobacterium tuberculosis, H37RV, read-out: GAST MIC in ng/mL

Cc1csc2nc(SCC(=O)NC3CCCCC3)[nH]c(=O)c12 [Compound 3]
PFI [1]: 4.7
IC50 [2]: 210 ± 25 nM
MIC (M. tuberculosis H37Rv [3]; read-out: 7H9-ADC MIC): > 50 µM
MIC (M. tuberculosis H37Rv [4]; [13]): 43 µM

O=C(CSc1nc2ccccc2c(=O)[nH]1)NC1CCC(F)(F)CC1 [Compound 7, N-(4,4-Difluorocyclohexyl)-2-((4-oxo-3,4-dihydroquinazolin-2-yl)thio)acetamide]
Kinetic solubility (physchem [5]): 111 (HCl salt) μM
solubility kinetic (physchem [5]): 105 µM (≈ 37.1 µg/mL)
HepG2 cytotoxicity (in words) (HepG2 [6]): no HepG2 cytotoxicity was observed
chromatographic logD (physchem [7]): 1.5
IC50 (HepG2 [8]): > 50000 nM
Effect on maximal respiration after CCCP uncoupling (M. tuberculosis H37Rv [9]; CCCP 3 μM, compared to untreated control): significantly diminished maximal respiration
Effect on basal MTb OCR (M. tuberculosis H37Rv [9]; ~45 min, glucose or palmitate): minimal effect
IC50 [2]: 6.6 ± 4 nM
MIC (M. tuberculosis H37Rv [3]; read-out: 7H9-ADC MIC): 0.4 µM
MIC (M. tuberculosis H37Rv [3]; read-out: 7H9-ADC MIC in ng/mL): 141 ng/mL
Papp at 5 h, 10 μM (in vitro): 6.4 ×10⁻⁶ cm/s
PPB (% unbound) [10]: 13 % unbound
Clb (Mouse pharmacokinetics; [14]): 39 mL/min/kg
Vd (Mouse pharmacokinetics; [14]): 1 L/kg
bioavailability (Mouse pharmacokinetics; [14]): 29%
AUC(0-t) (Mouse pharmacokinetics; [15]): 1120 ng·h/mL
Cmax (Mouse pharmacokinetics; [15]): 399 ng/mL
AUC (Mouse pharmacokinetics; female, C57Bl/6, mouse, 5 mg/kg, read-out: AUC at 5 mg/kg oral (converted)): 9430 ng·h/mL
AUC (Mouse pharmacokinetics; female, C57Bl/6, mouse, 30 mg/kg, read-out: AUC at 30 mg/kg oral (converted)): 2190 ng·h/mL
AUC (Mouse pharmacokinetics; female, C57Bl/6, mouse, 100 mg/kg, read-out: AUC at 100 mg/kg oral (converted)): 2200 ng·h/mL
half-life (Mouse pharmacokinetics; female, C57Bl/6, whole blood, C57 mouse PK at 3 iv and 10 po (mg/kg), 1 free base, 7 HCl salt): 1.3 h
Dose linearity (AUC comparison) (Mouse pharmacokinetics; mouse, in vivo, po, 100 mg/kg): no dose linearity was observed
Mouse microsomal metabolite identification [11]: a small amount of amide bond cleavage as well as oxidation of the quinazolin-4(3H)-one ring
Human microsomal metabolite identification (human liver microsomes): oxidation of the quinazolinone ring
GSH trapping: adducts formed (with and without human liver microsomes): GSH adducts 12 and 13, without microsomal activation
MIC (M. tuberculosis H37Rv [4]; [13]): 0.4 µM
MIC (M. tuberculosis H37Rv [4]; [16]): 141 ng/mL

O=C(CSc1nc2ccccc2c(=O)[nH]1)NCC1CCC(F)(F)CC1 [Compound 11, N-((4,4-Difluorocyclohexyl)methyl)-2-((4-oxo-3,4-dihydroquinazolin-2-yl)thio)acetamide]
Kinetic solubility (physchem [5]): >250 µM
solubility kinetic (physchem [5]): 250 µM (≈ 91.9 µg/mL)
chromatographic logD (physchem [7]): 1.6
IC50 (HepG2 [8]): > 50000 nM
IC50 [2]: 26 ± 6 nM
MIC (M. tuberculosis H37Rv [3]; read-out: 7H9-ADC MIC): 1.1 µM
MIC (M. tuberculosis H37Rv [3]; read-out: 7H9-ADC MIC in ng/mL): 294 ng/mL
Papp at 5 h, 10 μM (in vitro): 6.5 ×10⁻⁶ cm/s
PPB (% unbound) [10]: 21 % unbound
AUC(0-t) (Mouse pharmacokinetics; [15]): 2140 ng·h/mL
Cmax (Mouse pharmacokinetics; [15]): 1110 ng/mL
MIC (M. tuberculosis H37Rv [4]; [13]): 0.8 µM
MIC (M. tuberculosis H37Rv [4]; [16]): 294 ng/mL
MIC (M. tuberculosis H37Rv [4]; read-out: GAST MIC): 0.8 µM

O=C(CCc1nc2ccccc2c(=O)[nH]1)NC1CCCCC1 [Compound 19, N-Cyclohexyl-3-(4-oxo-3,4-dihydroquinazolin-2-yl)propanamide]
Microsomal Cli, mouse [12]: 1.6 mL/min/g
solubility kinetic (physchem [5]): 250 µM (≈ 74.8 µg/mL)
MIC (M. tuberculosis H37Rv [3]; read-out: 7H9-ADC MIC): 50 µM
MIC (M. tuberculosis H37Rv [4]; [13]): 50 µM

O=C(CSc1nc2c(c(=O)[nH]1)CCCC2)NC1CCCCC1 [Compound 23, N-Cyclohexyl-2-((4-oxo-3,4,5,6,7,8-hexahydroquinazolin-2-yl)thio)acetamide]
Microsomal Cli, mouse [12]: 6.6 mL/min/g
solubility kinetic (physchem [5]): 250 µM (≈ 80.4 µg/mL)
MIC (M. tuberculosis H37Rv [3]; read-out: 7H9-ADC MIC): 1.6 µM
MIC (M. tuberculosis H37Rv [4]; [13]): 1.2 µM

O=C(CSc1nc2c(c(=O)[nH]1)CCC2)NC1CCCCC1 [Compound 24, N-Cyclohexyl-2-((4-oxo-4,5,6,7-tetrahydro-3H-cyclopenta[d]pyrimidin-2-yl)thio)acetamide]
Microsomal Cli, mouse [12]: 1.2 mL/min/g
solubility kinetic (physchem [5]): 250 µM (≈ 76.9 µg/mL)
MIC (M. tuberculosis H37Rv [3]; read-out: 7H9-ADC MIC): 1.2 µM
MIC (M. tuberculosis H37Rv [4]; [13]): 1.6 µM

Cc1nc(SCC(=O)NC2CCCCC2)nc(O)c1C [Compound 25, N-Cyclohexyl-2-((4,5-dimethyl-6-oxo-1,6-dihydropyrimidin-2-yl)thio)acetamide]
Microsomal Cli, mouse [12]: 1.1 mL/min/g
solubility kinetic (physchem [5]): 250 µM (≈ 73.9 µg/mL)
MIC (M. tuberculosis H37Rv [3]; read-out: 7H9-ADC MIC): 12.5 µM
MIC (M. tuberculosis H37Rv [4]; [13]): 6.3 µM

O=C(CSc1nc2ccc(F)cc2c(=O)[nH]1)NC1CCC(F)(F)CC1 [Compound 26, N-(4,4-Difluorocyclohexyl)-2-((6-fluoro-4-oxo-3,4-dihydroquinazolin-2-yl)thio)acetamide]
Microsomal Cli, mouse [12]: 2.2 mL/min/g
solubility kinetic (physchem [5]): 55 µM (≈ 20.4 µg/mL)
MIC (M. tuberculosis H37Rv [3]; read-out: 7H9-ADC MIC): 0.8 µM
MIC (M. tuberculosis H37Rv [4]; [13]): 0.6 µM

O=C(CSc1nc2cnccc2c(=O)[nH]1)NC1CCC(F)(F)CC1 [Compound 27, N-(4,4-Difluorocyclohexyl)-2-((4-oxo-3,4-dihydropyrido[3,4-d]pyrimidin-2-yl)thio)acetamide]
Microsomal Cli, mouse [12]: 1.6 mL/min/g
solubility kinetic (physchem [5]): 250 µM (≈ 88.6 µg/mL)
MIC (M. tuberculosis H37Rv [3]; read-out: 7H9-ADC MIC): 2.5 µM
MIC (M. tuberculosis H37Rv [4]; [13]): 9.4 µM
